Test results published in patent publication US7514254B2, “Plant-derived alkaline alpha-galactosidase” (The State of Israel, Ministry of Agriculture & Rural …, priority 1998, dated 2009).

Tests used:
[1] = tested on: melon (Cucumis melo) fruit acid form alpha-galactosidase; assay: Substrate kinetics (Lineweaver-Burk) of acid alpha-galactosidase; assay type: biochemical, muskmelon (Cucumis melo L. cv C-8)
Procedure: (§1) For routine analysis and monitoring the activity in the purification steps, alpha-galactosidase was assayed as described by Smart and Pharr (“Characterization of alpha-galactosidase from cucumber leaves”, Plant Physiology, 66:731-734, 1980), using p-nitrophenyl alpha-galactoside (pNPG) as substrate. […] The reaction was terminated after 10 min by adding 1 ml of 5% (w/v) Na2CO3 and activity expressed as nmol nitrophenol per min as measured at 410 nm. […] The assay was started by adding 50 μl enzyme preparation at 35 C and terminated after 10 to 20 min by 2 min boiling. […] For the partial purification of the acid form of alpha-galactosidase the fractions active at pH 5.5 were pooled and concentrated by reverse dialysis against solid sucrose. […] The active fractions were then desalted by dialysis against buffer A for 12 hours with two changes of the buffer. This enzyme fraction was used for the characterization of the acidic form of alpha-galactosidase. […] The substrate specificity of the alpha-galactosidases was tested with pNPG, stachyose, raffinose, melibiose or guar gum (Sigma).

[2] = molecular target: T1, melon (Cucumis melo) fruit alkaline alpha-galactosidase Form I (Cucumis melo, UniProt Q84NI7); assay: Substrate kinetics (Lineweaver-Burk) of alkaline alpha-galactosidase Form I
T1 sequence (Q84NI7 1-754): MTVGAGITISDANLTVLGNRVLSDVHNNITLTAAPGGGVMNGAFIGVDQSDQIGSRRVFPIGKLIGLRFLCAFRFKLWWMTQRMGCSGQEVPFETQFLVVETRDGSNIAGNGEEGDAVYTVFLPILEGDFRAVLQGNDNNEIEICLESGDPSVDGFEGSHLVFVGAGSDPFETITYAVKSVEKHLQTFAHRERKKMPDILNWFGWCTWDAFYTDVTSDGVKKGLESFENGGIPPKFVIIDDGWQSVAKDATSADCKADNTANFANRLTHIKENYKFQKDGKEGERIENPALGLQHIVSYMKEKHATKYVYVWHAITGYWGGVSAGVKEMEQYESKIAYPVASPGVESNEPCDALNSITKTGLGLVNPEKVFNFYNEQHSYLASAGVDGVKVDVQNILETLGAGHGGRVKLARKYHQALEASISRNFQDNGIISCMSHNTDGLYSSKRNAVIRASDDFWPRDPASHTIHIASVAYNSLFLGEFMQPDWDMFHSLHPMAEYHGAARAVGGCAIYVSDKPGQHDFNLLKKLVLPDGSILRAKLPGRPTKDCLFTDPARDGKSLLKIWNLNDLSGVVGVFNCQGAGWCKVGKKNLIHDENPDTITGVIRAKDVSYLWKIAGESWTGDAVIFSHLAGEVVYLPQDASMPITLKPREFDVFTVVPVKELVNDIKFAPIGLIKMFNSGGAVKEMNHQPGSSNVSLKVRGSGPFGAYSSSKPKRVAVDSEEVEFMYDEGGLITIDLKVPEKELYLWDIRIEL
Procedure: (§2) For routine analysis and monitoring the activity in the purification steps, alpha-galactosidase was assayed as described by Smart and Pharr (“Characterization of alpha-galactosidase from cucumber leaves”, Plant Physiology, 66:731-734, 1980), using p-nitrophenyl alpha-galactoside (pNPG) as substrate. Reaction was initiated by adding 50 μl enzyme aliquot to either 200 μl 100 mM pH 5.5 McIlvaine buffer or 100 mM pH 7.5 HEPES buffer, containing 5 mM pNPG at 35 C. The reaction was terminated after 10 min by adding 1 ml of 5% (w/v) Na2CO3 and activity expressed as nmol nitrophenol per min as measured at 410 nm. […] The assay was started by adding 50 μl enzyme preparation at 35 C and terminated after 10 to 20 min by 2 min boiling.
(§3) The fractions from the DEAE-Sepharose chromatography which were active at pH 7.5 were pooled and dialyzed against buffer A for 12 h prior to loading onto an HPLC ion exchange chromatography column (Mono-Q HR 5/5, Pharmacia, Uppsala, Sweden), previously equilibrated with buffer A. Bound proteins were eluted with a linear gradient of 0.1 to 0.45 M NaCl and the active fractions were detected using pNPG as substrate at pH 7.5 as described above. […] For the further purification of Form II the active fractions of the peak II were chromatographed on hydrophobic interaction chromatography. The fractions were pooled, brought to 1 M (NH4)2SO4 and loaded on to a hydrophobic interaction column (phenyl-Sepharose CL-4B, 0.5×12 cm, Pharmacia, Uppsala, Sweden) previously equilibrated with buffer A containing 1 M (NH4)2SO4. The protein was eluted with a reverse stepwise gradient from 1 to 0 M (NH4)2SO4 with 50 mM intervals in buffer A. Fractions containing the activity peak were collected and dialyzed for 12 h against buffer A and the dialysate was concentrated by reverse dialysis against solid sucrose. The enzyme, partially purified by hydrophobic interaction chromatography, was used for the characterization of Form II. The active fractions from the hydrophobic interaction column were further purified. Active fractions were separated electrophoretically using a Mini Prep Cell (Bio-Rad Laboratories, Hercules, Calif.) for discontinuous native-PAGE with 7% polyacrylamide, according to manufacturer's instructions. Fractions (0.25 ml/fraction) were assayed at pH 7.5 with pNPG as substrate for the activity. The active fractions were pooled, concentrated by Vivaspin Concentrator (Vivascience LTD, Lincoln, England), and run in a 8% SDS-PAGE. Proteins in the SDS-PAGE were identified using Coomassie Blue staining.
(§4) Therefore, the active fractions from the Mono-Q column were used for the characterization of Form I. In addition, the Form I enzyme was further purified, as described in the following section.

[3] = molecular target: T2, melon (Cucumis melo) fruit alkaline alpha-galactosidase Form II (Cucumis melo, UniProt Q84NI6); assay: Substrate kinetics (Lineweaver-Burk) of alkaline alpha-galactosidase Form II; assay type: biochemical, muskmelon (Cucumis melo L. cv C-8)
T2 construct: native 102 kDa, denatured 92 kDa; assayed at pH 7.5
T2 sequence (Q84NI6 1-772): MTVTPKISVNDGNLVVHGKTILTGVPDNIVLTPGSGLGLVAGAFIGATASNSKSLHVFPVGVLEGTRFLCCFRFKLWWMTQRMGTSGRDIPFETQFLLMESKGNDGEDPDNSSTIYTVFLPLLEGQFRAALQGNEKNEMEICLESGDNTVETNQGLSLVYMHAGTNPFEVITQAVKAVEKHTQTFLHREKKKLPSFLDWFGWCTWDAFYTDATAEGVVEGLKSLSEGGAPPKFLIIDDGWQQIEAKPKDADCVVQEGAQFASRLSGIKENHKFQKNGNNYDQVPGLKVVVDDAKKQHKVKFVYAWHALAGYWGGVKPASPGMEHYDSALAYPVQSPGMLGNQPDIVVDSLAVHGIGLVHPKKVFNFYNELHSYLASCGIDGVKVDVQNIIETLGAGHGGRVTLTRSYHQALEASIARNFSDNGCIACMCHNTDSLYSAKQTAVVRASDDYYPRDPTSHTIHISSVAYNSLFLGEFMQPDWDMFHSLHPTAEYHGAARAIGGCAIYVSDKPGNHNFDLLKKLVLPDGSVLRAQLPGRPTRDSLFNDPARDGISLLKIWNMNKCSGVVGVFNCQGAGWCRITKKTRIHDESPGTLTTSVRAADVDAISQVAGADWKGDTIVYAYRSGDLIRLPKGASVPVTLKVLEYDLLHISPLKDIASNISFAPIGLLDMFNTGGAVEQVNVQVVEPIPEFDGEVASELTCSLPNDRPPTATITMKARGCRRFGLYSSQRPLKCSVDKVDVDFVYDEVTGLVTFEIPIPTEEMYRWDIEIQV
Procedure: as §2, §3

[4] = molecular target: T2, melon (Cucumis melo) fruit alkaline alpha-galactosidase Form II; assay: Inhibition of alkaline alpha-galactosidase Form II by alternative substrate (galactose release); assay type: biochemical, muskmelon (Cucumis melo L. cv C-8); conditions: read-out: inhibition by excess raffinose (galactose release)
Procedure: as §2

[5] = tested on: Cucurbita pepo leaf alkaline alpha-galactosidase ("LIV" enzyme); assay: Substrate kinetics of Cucurbita pepo leaf alkaline alpha-galactosidase (Gaudreault and Webb); assay type: biochemical; conditions: calculated for prior art "LIV" enzyme of Gaudreault and Webb
[6] = tested on: Cucurbita pepo leaf alkaline alpha-galactosidase ("LIV" enzyme); conditions: Gaudreault and Webb; alkaline form; cited from earlier work
[7] = tested on: Escherichia coli K12 alpha-galactosidase; conditions: Schmid and Schmitt 1976; cited from earlier work
[8] = tested on: Pseudomonas fluorescens H-601 alpha-galactosidase; conditions: Hashimoto et al. 1991; relative Km values; cited from earlier work
[9] = tested on: melon (Cucumis melo) fruit acid form alpha-galactosidase; assay: Inhibition of acid alpha-galactosidase by galactose, pNPG as substrate; assay type: biochemical, muskmelon (Cucumis melo L. cv C-8)
Procedure: as §1

[10] = molecular target: T2, melon (Cucumis melo) fruit alkaline alpha-galactosidase Form II; assay: Inhibition of alkaline alpha-galactosidase Form II by galactose, pNPG as substrate; assay type: biochemical, muskmelon (Cucumis melo L. cv C-8)
Procedure: as §2
as §3, with “Active fractions were separated electrophoretically using a Mini Prep Cell (Bio-Rad Laboratories, Hercules, Calif.) for discontinuous native-PAGE with 7% polyacrylamide, according to manufacturer's instructions. Fractions (0.25 ml/fraction) were assayed at pH 7.5 with pNPG as substrate for the activity. The active fractions were pooled, concentrated by Vivaspin Concentrator (Vivascience LTD, Lincoln, England), and run in a 8% SDS-PAGE. Proteins in the SDS-PAGE were identified using Coomassie Blue staining.” left out

[11] = tested on: Cucurbita pepo leaf alkaline alpha-galactosidase; conditions: 6.4 mM galactose; 7.5 mM pNPG, pH 7.5; cited from earlier work
[12] = molecular target: T1, melon (Cucumis melo) fruit alkaline alpha-galactosidase Form I; assay: Inhibition of alkaline alpha-galactosidase Form I by galactose, pNPG as substrate; assay type: biochemical, muskmelon (Cucumis melo L. cv C-8); parameters: native 84 kDa, denatured 79 kDa; assayed at pH 7.5
Procedure: as §2, §3, §4

## OC[C@H]1O[C@H](OC[C@H]2O[C@H](O[C@]3(CO)O[C@H](CO)[C@@H](O)[C@@H]3O)[C@H](O)[C@@H](O)[C@@H]2O)[C@H](O)[C@@H](O)[C@H]1O [Raffinose, O-alpha-D-galactopyranosyl-(1-6)-O-alpha-D-glucopyranosyl-(1-2)-beta-D-fructofuranoside]
[1]
  Vmax/Km ratio: 0.17
[1]; Lineweaver-Burk
  Km: 4.2 mM
  Vmax: 0.71 μmol mg^−1 protein min^−1
[2]
  Vmax/Km ratio: 0.37
[2]; Lineweaver-Burk
  Km: < 5 mM
  Vmax: 0.56 μmol mg^−1 protein min^−1
[3]
  Vmax/Km ratio: 0.01
[3]; Lineweaver-Burk
  Vmax: 0.28 μmol mg^−1 protein min^−1
[4]
  inhibition at 80000 µM: 35%
[5]
  Vmax/Km ratio: 0.0039
[6]
  Km: 36.4 mM
[7]
  Km: 60 mM
[8]
  Km: 17 mM

## OC[C@H]1O[C@H](O)[C@H](O)[C@@H](O)[C@H]1O [galactose, alpha-D-galactose]
[9]; 8 mM galactose, 10 mM pNPG
  reduction in activity by galactose: 65%
[9]; Lineweaver-Burk
  inhibition type (galactose): competitive
[9]; competitive, Lineweaver-Burk
  Ki: 60 µM
[10]; 8 mM galactose, 10 mM pNPG, read-out: reduction in activity by galactose
  inhibition at 8000 µM: 70%
[10]; Lineweaver-Burk
  inhibition type (galactose): competitive
[10]; competitive, Lineweaver-Burk
  Ki: 1300 µM
[11]
  reduction of reaction velocity by galactose: 50%
[12]; 8 mM galactose, 10 mM pNPG, alkaline Form I
  inhibition at 8000 µM: 8%
[12]; alkaline Form I, Lineweaver-Burk
  inhibition type (galactose): competitive
[12]; alkaline Form I, competitive, Lineweaver-Burk
  Ki: 13000 µM
[12]; alkaline alpha galactosidase of the invention, FIG. 4D-F
  inhibition of catalytic activity by galactose (in words): no inhibition of catalytic activity
